We go through four compounds from US8529542B2, “Method and system for sustained-release of sclerosing agent” (UTI Limited Partnership, priority 2007, dated 2013).

Data set [1] relates to rabbit model of pleurodesis. Put plainly: Direct daily dosing at low levels, rabbit model of pleurodesis. The class given is in vivo. The following applies: for average pleurodesis score: score out of 8. How it is done: These experiments were carried out in order to determine if low doses of sclerosing agents could result in successful pleurodesis when administered in a repeated fashion. Using daily doses of silver nitrate or doxycycline in decreasing doses starting at the lower limit of what has previously been reported to be effective, further decreases in dosing were administered utilizing single day, 5 day or 14 day regimens. Theoretically utilizing lower doses on a repeated basis may reduce the frequency and/or severity of side effects.
All experiments were carried out in a rabbit model of pleurodesis which has been extensively utilized in the field of pleurodesis in many centers around the world. As explained in further detail below, standard pleurodesis is score graded one to 8 and is used for assessment of the efficacy of pleurodesis, the number one representing a normal pleural space while 8 represents complete pleural symphysis. A score of 5 or higher is usually considered consistent with a successful pleurodesis.
A total of 18 animals were treated with doxycycline at doses of 1 mg/kg, 5 mg/kg, or 10 mg/kg. Animals (n=2) in the 10 mg/kg group received only the single day injection, animals (n=2/group) in the 5 mg/kg range received either 1 day, 5 days or 14 days injection, and animals in the lowest dose range of 1 mg/kg (n=2/group) received repeated injections over 5 days or 14 days. The results were compared with the placebo groups (n=2/group) which were given saline injections over either 1, 5 or 14 days. All doses were administered after a daily drainage. At the end of the treatment period, the animals were euthanized and pleurodesis was scored according to the standard scoring system shown in FIG. 5.
A total of 20 animals were treated with silver nitrate at dosing concentrations of 0.05%, 0.085%, 0.425% and 0.85%. Note that reported effective single dose injections of silver nitrate in this model range from 0.3% to 0.5%. A concentration of 0.25% was reported to be ineffective in one publication, but overall data is limited. The groups were assigned a treatment period of either a 1 day, 5 days or 14 days of repeated injections. A minimum of 2 animals were used for each of the 10 groups, and a further 2 animals were tested at the lowest dose range (0.05%). The results were compared with the placebo groups which were given saline injections over either 1, 5 or 14 days (n=2/group). All doses were administered after a daily drainage. At the end of the treatment period, the animals were euthanized and pleurodesis was scored according to the standard scoring table (shown in FIG. 5). Degree of pleural inflammation and fibrosis was also evaluated.

For data set [2], the system named is patients. The following applies: cited from earlier work; for pain after intrapleural administration: literature reports.
Data set [3] relates to animal model. Particulars: cited from earlier work.
The test system of data set [4] is rabbit model of pleurodesis. Particulars: concentration of 0.25%; cited from earlier work.

Regarding `C[C@H]1c2cccc(O)c2C(=O)C2=C(O)[C@]3(O)C(=O)C(C(N)=O)=C(O)[C@@H](N(C)C)[C@@H]3[C@@H](O)[C@@H]21` [doxycycline], the pleurodesis score in data set [1] (5 mg/kg over 14 days, score 1-8) is given as 5. In addition, in data set [1] (10 mg/kg single dose, score 1-8), the mean pleurodesis score worked out at 4.5. Also, the “pain after intrapleural administration” value in data set [2] was “significant”.
With `CN(C)c1ccc(O)c2c1C[C@H]1C[C@H]3[C@H](N(C)C)C(O)=C(C(N)=O)C(=O)[C@@]3(O)C(O)=C1C2=O` [minocycline], the mortality entry in data set [3] (higher doses, intrapleural (Light et al., 1994)) is “excess mortality”.
`O=[N+]([O-])[O-].[Ag+]` [silver nitrate]: the “systemic response (white blood cell count elevation, neutrophilia, serum interleukin-8 and VEGF levels)” value in data set [3] (concentration of 0.1% vs 0.5% dose (Marchi et al., 2005)) is on record as “less systemic response”. Moreover, the average pleurodesis score in data set [1] (0.05% 14 days of repeated injections) stood at 6.5; in data set [1] (0.085% repeated daily over 5 days), 7.5; in data set [1] (0.425% single day injection), 8; in data set [1] (0.85% single day injection), 8. For the same compound, the pleurodesis scores result in data set [1] (0.050% administered for 14 days) was “greater than or equal to 5”; in data set [1] (0.085% administered for 5 days), “successful pleurodesis scores”. Further, in data set [1] (0.085% single dose), the pleurodesis outcome is recorded as “ineffective in achieving pleurodesis”. Besides, the “pleurodesis outcome (one publication)” value in data set [4] was “ineffective”. Besides, the “tolerability in human trial” value in data set [2] (0.5% concentration (Paschoalini et al., 2005)) is “well tolerated”. The clinical side effects result in data set [2] (concentrations of up 10% (Wied et al.)) was “severe pain and side effects”. The “pain after intrapleural administration” value in data set [2] is “significant”.
In the case of `CN(C)[C@@H]1C(O)=C(C(N)=O)C(=O)[C@@]2(O)C(O)=C3C(=O)c4c(O)cccc4[C@@](C)(O)[C@H]3C[C@@H]12` [tetracycline], the “pain after intrapleural administration” value in data set [2] is listed as “Intense pain”.
